Assay [1] addresses T1, D(2) dopamine receptor (Homo sapiens, UniProt P14416).
Description: Displacement of PPHT-red from SNAP-tagged human D2LR expressed in CHOK1 cell membranes assessed as association rate constant by TR-FRET assay
The target of assay [2] is T1, D(2) dopamine receptor. The source holds these as a separate data set.
Description: Displacement of PPHT-red from SNAP-tagged human D2LR expressed in CHOK1 cell membranes assessed as dissociation rate constant by TR-FRET assay
Assay [3] concerns the target T1, D(2) dopamine receptor. The source holds these as a separate data set.
Description: Displacement of PPHT-red from SNAP-tagged human D2LR expressed in CHOK1 cell membranes assessed as dissociation half-life by TR-FRET assay
Assay [4] concerns the target T1, D(2) dopamine receptor. This is another data set of the same source.
Description: Binding affinity to SNAP-tagged human D2LR expressed in CHOK1 cell membranes assessed as association rate constant by TR-FRET assay
Assay [5] deals with T1, D(2) dopamine receptor. The source holds these as a separate data set.
Description: Binding affinity to SNAP-tagged human D2LR expressed in CHOK1 cell membranes assessed as dissociation rate constant by TR-FRET assay
For assay [6], the target named is T1, D(2) dopamine receptor. As to conditions: 10 min, read-out: INH.

SMILES strings stand for the structures.

T1 sequence (P14416 whole entry): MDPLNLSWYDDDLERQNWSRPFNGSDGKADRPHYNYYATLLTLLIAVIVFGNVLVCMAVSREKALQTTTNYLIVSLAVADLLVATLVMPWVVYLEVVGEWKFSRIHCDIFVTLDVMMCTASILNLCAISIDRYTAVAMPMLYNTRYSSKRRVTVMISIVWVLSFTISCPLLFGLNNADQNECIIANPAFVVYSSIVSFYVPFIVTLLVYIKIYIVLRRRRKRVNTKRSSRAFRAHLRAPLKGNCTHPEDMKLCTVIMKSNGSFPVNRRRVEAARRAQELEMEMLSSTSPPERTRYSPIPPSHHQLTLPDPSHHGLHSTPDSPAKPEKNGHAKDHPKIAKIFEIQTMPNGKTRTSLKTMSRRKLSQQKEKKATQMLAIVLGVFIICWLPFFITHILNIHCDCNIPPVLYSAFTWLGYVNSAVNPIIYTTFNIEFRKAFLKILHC

On to `O=C(CCCN1CCC(c2ccc(Cl)cc2)CC1)c1ccc(F)cc1`, for which, on D(2) dopamine receptor [1], the Ka came out at 4.31 ×10⁸ /M/min. The molecule further displayed a Kdiss at D(2) dopamine receptor [2] of 0.014 s⁻¹. The molecule further yielded a T1/2 on D(2) dopamine receptor [3] of 51.6 s.
The matching figures for `O=C(CCCN1CCC(O)(c2ccc(F)cc2)CC1)c1ccc(F)cc1`: 2.61 ×10⁸ /M/min, 0.013 s⁻¹ and 55.2 s.
For `O=C(CCCN1CC=C(c2ccc(Cl)cc2)CC1)c1ccc(F)cc1`, in that order: 6.52 ×10⁷ /M/min, 0.0108 s⁻¹ and 65.4 s.
For `OC1(c2ccc(Cl)cc2)CCN(CCC#Cc2ccc(F)cc2)CC1`, in that order: 1.61 ×10⁷ /M/min, 0.0183 s⁻¹ and 41.4 s.
`O=C(CCCN1CCC(O)(c2ccc(Cl)cc2)CC1)c1cc(F)ccc1F` yielded a Ka at D(2) dopamine receptor [1] of 1.13 to 1.15 ×10⁷ /M/min. In addition, the Kdiss on D(2) dopamine receptor [2] fell in the range of 0.019 to 0.0248 s⁻¹. This molecule also yielded a T1/2 at D(2) dopamine receptor [3] of 34.8 to 37.8 s.
For `O=C(CCCN1CCC(O)(c2ccc(C(F)(F)F)cc2)CC1)c1ccc(F)cc1`, in that order: 1.36 ×10⁹ /M/min, 0.0103 s⁻¹ and 67.2 s.
In the case of `OC1(c2ccc(Cl)cc2)CCN(CCCc2ccc(F)cc2)CC1`, the Ka at D(2) dopamine receptor [1] is 2.29 to 2.45 ×10⁷ /M/min. Besides, the Kdiss on D(2) dopamine receptor [2] was in the range of 0.0222 to 0.0257 s⁻¹. The T1/2 at D(2) dopamine receptor [3] is 27.6 to 34.2 s.
As for `OC1(c2ccc(Cl)cc2)CCN(CC/C=C\c2ccc(F)cc2)CC1`, the Ka at D(2) dopamine receptor [1] was found to be 3.35 ×10⁷ /M/min. Moreover, the Kdiss at D(2) dopamine receptor [2] turned out to be 0.0208 s⁻¹. This molecule registered a T1/2 at D(2) dopamine receptor [3] of 34.8 s.
`O=C(CCCN1CCC(O)(c2ccc(Cl)cc2)CC1)c1ccc(F)cc1F`: the Ka on D(2) dopamine receptor [1] came to 1.07 ×10⁷ /M/min. Besides, the Kdiss at D(2) dopamine receptor [2] was found to be 0.0227 s⁻¹. The same molecule gave a T1/2 on D(2) dopamine receptor [3] of 30.6 s.
The matching figures for `OC1(c2ccc(Cl)cc2)CCN(CCCCc2ccc(F)cc2)CC1`: 1.57 ×10⁸ /M/min, 0.0185 s⁻¹ and 37.8 s.
In turn, `O=C(CCCN1CCC(O)(c2cccc(Cl)c2)CC1)c1ccc(F)cc1` came in with a Ka on D(2) dopamine receptor [1] of 6.32 ×10⁸ /M/min. For the same molecule, the Kdiss on D(2) dopamine receptor [2] stood at 0.0107 s⁻¹. The T1/2 on D(2) dopamine receptor [3] turned out to be 71.4 s.
On D(2) dopamine receptor [1], `O=C(CCCN1CCN(c2ccc(Cl)cc2)CC1)c1ccc(F)cc1` had a Ka of 2.86 ×10⁷ /M/min. At D(2) dopamine receptor [2], this molecule registered a Kdiss of 0.0133 s⁻¹. This molecule also came in with a T1/2 at D(2) dopamine receptor [3] of 53.4 s.
The matching figures for `O=C(CCCN1CCC(O)(c2ccccc2)CC1)c1ccc(F)cc1`: 1.22 ×10⁸ /M/min, 0.017 s⁻¹ and 42.6 s.
The matching figures for `OC1(c2ccc(Cl)cc2)CCN(CC[C@H]2C[C@H]2c2ccc(F)cc2)CC1` (racemic): 4.47 ×10⁷ /M/min, 0.0228 s⁻¹ and 30.6 s.
In turn, `OC1(c2ccc(Cl)cc2)CCN(CCCOc2ccc(F)cc2)CC1` had a Ka at D(2) dopamine receptor [1] of 1.22 ×10⁹ /M/min. The molecule further showed a Kdiss at D(2) dopamine receptor [2] of 0.0152 s⁻¹. At D(2) dopamine receptor [3], the T1/2 is 48.6 s.
The matching figures for `O=C(CCCN1CCC(O)(c2ccc(Cl)cc2)CC1)c1c(F)cccc1F`: 1.84 ×10⁷ /M/min, 0.0182 s⁻¹ and 39.6 s.
Regarding `O=C(CCCN1CCC(O)(c2ccc(Cl)cc2)CC1)c1cccc(F)c1`, on D(2) dopamine receptor [1], the Ka is 2.55 to 2.64 ×10⁷ /M/min. The Kdiss at D(2) dopamine receptor [2] was in the range of 0.016 to 0.018 s⁻¹. The same molecule had a T1/2 at D(2) dopamine receptor [3] of 42 to 45.6 s.
Turning to `O=C(CCN1CCC(O)(c2ccc(Cl)cc2)CC1)c1ccc(F)cc1`, on D(2) dopamine receptor [1], the Ka lay in the range of 1.03 to 1.33 ×10⁷ /M/min. At D(2) dopamine receptor [2], this molecule displayed a Kdiss of 0.0212 to 0.0325 s⁻¹. For the same molecule, the T1/2 at D(2) dopamine receptor [3] was 25.8 to 34.2 s.
For `Cc1ccc(C2(O)CCN(CCCC(=O)c3ccc(F)cc3)CC2)cc1`, in that order: 1 ×10⁹ /M/min, 0.0163 s⁻¹ and 43.8 s.
For `Cc1ccccc1C(=O)CCCN1CCC(O)(c2ccc(Cl)cc2)CC1`, in that order: 3.66 ×10⁸ /M/min, 0.0138 s⁻¹ and 60.6 s.
The matching figures for `OC1(c2ccc(Cl)cc2)CCN(CC#Cc2ccc(F)cc2)CC1`: 3.37 ×10⁶ /M/min, 0.016 s⁻¹ and 46.2 s.
`O=C(CCCN1CCC(O)(c2ccc(Cl)cc2)CC1)c1ccccc1F`: the Kdiss at D(2) dopamine receptor [2] is 0.0173 s⁻¹. Also, at D(2) dopamine receptor [3], the T1/2 was 41.4 s.
On D(2) dopamine receptor [1], `OC1(c2ccc(Cl)cc2)CCN(CCCC#Cc2ccc(F)cc2)CC1` yielded a Ka of 6.41 ×10⁷ /M/min. This molecule registered a Kdiss at D(2) dopamine receptor [2] of 0.0192 s⁻¹. This molecule returned a T1/2 at D(2) dopamine receptor [3] of 39 s.
`O=C(CCCN1CCC(O)(c2ccc(Cl)cc2)CC1)c1cccc(F)c1F` displayed a Ka on D(2) dopamine receptor [1] of 3.01 to 3.24 ×10⁷ /M/min. For the same molecule, the Kdiss on D(2) dopamine receptor [2] fell in the range of 0.0215 to 0.0283 s⁻¹. This molecule came in with a T1/2 at D(2) dopamine receptor [3] of 24.6 to 36 s.
For `O=C(CCCN1CCC(O)(c2ccccc2-c2ccccc2Cl)CC1)c1ccc(F)cc1`, in that order: 3.25 ×10⁸ /M/min, 0.0137 s⁻¹ and 53.4 s.
In turn, `O=C(CCCN1CCC(O)(c2cc(Cl)ccc2Cl)CC1)c1ccc(F)cc1` registered a Ka at D(2) dopamine receptor [1] of 5.29 ×10⁸ /M/min. Also, the Kdiss on D(2) dopamine receptor [2] was found to be 0.00933 s⁻¹. This molecule also yielded a T1/2 on D(2) dopamine receptor [3] of 76.2 s.
With `O=C(CCCN1CCC(O)(c2ccc(Cl)cc2)CC1)c1ccccc1`, the Ka on D(2) dopamine receptor [1] was found to be 6.33 ×10⁸ /M/min. The Kdiss at D(2) dopamine receptor [2] came to 0.0187 s⁻¹. Besides, the T1/2 at D(2) dopamine receptor [3] came to 40.2 s.
On D(2) dopamine receptor [1], `OC1(c2ccc(Cl)cc2)CCN(CC[C@H]2C[C@@H]2c2ccc(F)cc2)CC1` (racemic) displayed a Ka of 6.07 ×10⁸ /M/min. On D(2) dopamine receptor [2], this molecule showed a Kdiss of 0.0153 s⁻¹. At D(2) dopamine receptor [3], this molecule had a T1/2 of 49.2 s.
For `O=C(CCCN1[C@@H]2CC[C@H]1CC(O)(c1ccc(Cl)cc1)C2)c1ccc(F)cc1` (stereo partly specified), in that order: 3.68 ×10⁹ /M/min, 0.00317 s⁻¹ and 215 s.
At D(2) dopamine receptor [1], `O=C(CCCN1CCC(O)(c2ccccc2)CC1)c1ccccc1` displayed a Ka of 2.28 ×10⁷ /M/min. The Kdiss at D(2) dopamine receptor [2] stood at 0.0118 s⁻¹. This molecule also registered a T1/2 on D(2) dopamine receptor [3] of 58.8 s.
The matching figures for `COC1(c2ccc(Cl)cc2)CCN(CCCC(=O)c2ccc(F)cc2)CC1`: 3.6 ×10⁸ /M/min, 0.0113 s⁻¹ and 61.8 s.
For `O=C(CCCN1CCC(O)(c2ccc(F)cc2)CC1)c1ccc(Cl)cc1`, in that order: 4.17 ×10⁷ /M/min, 0.0128 s⁻¹ and 54.6 s.
`O=C(CCCN1CCC(O)(c2cccc(Cl)c2Cl)CC1)c1ccc(F)cc1` gave a Ka at D(2) dopamine receptor [1] of 2.2 ×10⁹ /M/min. This molecule also showed a Kdiss at D(2) dopamine receptor [2] of 0.005 s⁻¹. The T1/2 on D(2) dopamine receptor [3] turned out to be 137 s.
The matching figures for `O=C(CCCN1CCC(O)(c2ccc(Cl)cc2)CC1)c1ccccc1Cl`: 3.16 ×10⁸ /M/min, 0.0185 s⁻¹ and 45.6 s.
The matching figures for `O=C(CCCN1CCC(O)(c2ccc(Cl)cc2Cl)CC1)c1ccc(F)cc1`: 2.87 ×10⁸ /M/min, 0.0117 s⁻¹ and 69 s.
The matching figures for `O=C(CCCN1CCC2(c3ccc(Cl)cc3)CC2C1)c1ccc(F)cc1` (stereo unspecified): 2.03 ×10⁹ /M/min, 0.005 s⁻¹ and 141 s.
`O=C(CCCN1CCC(O)(c2ccc(Cl)c(Cl)c2)CC1)c1ccc(F)cc1` came in with a Ka at D(2) dopamine receptor [1] of 2.95 ×10⁹ /M/min. At D(2) dopamine receptor [2], this molecule came in with a Kdiss of 0.007 s⁻¹. On D(2) dopamine receptor [3], this molecule showed a T1/2 of 100 s.
Regarding `OC1(c2ccc(Cl)cc2)CCN(CC/C=C/c2ccc(F)cc2)CC1`, the Ka at D(2) dopamine receptor [1] came to 6.39 ×10⁷ /M/min. For the same molecule, at D(2) dopamine receptor [2], the Kdiss came to 0.0127 s⁻¹. The molecule also came in with a T1/2 at D(2) dopamine receptor [3] of 44.4 s.
As to `OC1(c2ccc(Cl)cc2)CCN(CCCCCc2ccc(F)cc2)CC1`, the Ka on D(2) dopamine receptor [1] came to 5.51 ×10⁷ /M/min. This molecule also gave a Kdiss on D(2) dopamine receptor [2] of 0.0203 s⁻¹. Also, at D(2) dopamine receptor [3], the T1/2 came out at 36 s.
For `OC1(c2ccc(Cl)cc2)CCN(CCCSc2ccc(F)cc2)CC1`, in that order: 4.99 ×10⁸ /M/min, 0.0165 s⁻¹ and 44.4 s.
For `O=C(CCCCN1CCC(O)(c2ccc(Cl)cc2)CC1)c1ccc(F)cc1`, in that order: 1.42 to 1.8 ×10⁸ /M/min, 0.0275 to 0.0392 s⁻¹ and 18 to 28.8 s.
Regarding `O=C(CCCN1CCC(O)(c2c(Cl)cccc2Cl)CC1)c1ccc(F)cc1`, on D(2) dopamine receptor [1], the Ka is 5.07 ×10⁸ /M/min. Moreover, on D(2) dopamine receptor [2], the Kdiss came to 0.0175 s⁻¹. The molecule also had a T1/2 on D(2) dopamine receptor [3] of 40.2 s.
In turn, `CCCN(CCc1ccccc1)C1CCc2c(O)cccc2C1` (racemic) displayed a Ka on D(2) dopamine receptor [4] of 9.21 ×10⁶ /M/min. Further, the Kdiss on D(2) dopamine receptor [5] came out at 0.00583 s⁻¹.
Turning to `O=C(CCCN1CCC(c2ccccc2)CC1)c1ccc(F)cc1`, the inhibition at 10 µM on D(2) dopamine receptor [6] was found to be 20%. The same molecule showed a Ka on D(2) dopamine receptor [1] of 8.99 ×10⁷ /M/min. The same molecule gave a Kdiss on D(2) dopamine receptor [2] of 0.0118 s⁻¹. On D(2) dopamine receptor [3], this molecule yielded a T1/2 of 59.4 s.
On D(2) dopamine receptor [1], `O=C(CCCN1CCC(O)(c2ccccc2Cl)CC1)c1ccc(F)cc1` had a Ka of 3.54 ×10⁸ /M/min. Also, the Kdiss at D(2) dopamine receptor [2] is 0.0193 s⁻¹. The molecule also gave a T1/2 at D(2) dopamine receptor [3] of 36.6 s.
Regarding `CN(C)c1ccc(C2(O)CCN(CCCC(=O)c3ccc(F)cc3)CC2)cc1`, the Ka at D(2) dopamine receptor [1] is 1.64 ×10⁸ /M/min. The same molecule yielded a Kdiss on D(2) dopamine receptor [2] of 0.0208 s⁻¹. At D(2) dopamine receptor [3], this molecule had a T1/2 of 33.6 s.
The matching figures for `O=C(CCCN1CCC(O)(c2cc(Cl)cc(Cl)c2)CC1)c1ccc(F)cc1`: 6.58 ×10⁸ /M/min, 0.00717 s⁻¹ and 116 s.
In turn, `O=C(CCCN1CCC(O)(c2ccc(Cl)cc2)CC1)c1ccc(F)c(F)c1` came in with a Kdiss at D(2) dopamine receptor [2] of 0.0172 s⁻¹. For the same molecule, the T1/2 at D(2) dopamine receptor [3] is 45 s.
On D(2) dopamine receptor [1], `OC(CCCN1CCC(O)(c2ccc(Cl)cc2)CC1)c1ccc(F)cc1` (stereo unspecified) gave a Ka of 6.19 ×10⁶ /M/min. In addition, at D(2) dopamine receptor [2], the Kdiss is 0.0095 s⁻¹. At D(2) dopamine receptor [3], the T1/2 turned out to be 75 s.
For `O=C(CCCN1CCC(O)(c2ccc(Cl)cc2)CC1)c1ccc(Cl)cc1`, in that order: 1.38 ×10⁸ /M/min, 0.0117 s⁻¹ and 60 s.
As for `O=C(CCCN1CCC(O)(c2ccc(Cl)cc2)CC1)c1cc(F)cc(F)c1`, the Ka at D(2) dopamine receptor [1] came to 4.25 ×10⁶ /M/min. The same molecule had a Kdiss on D(2) dopamine receptor [2] of 0.0153 s⁻¹. The molecule also showed a T1/2 on D(2) dopamine receptor [3] of 47.4 s.

Source of the values: ChEMBL document CHEMBL4414605 (J Med Chem, 2019).
